Assay results reported in US20250161319A1, “USE OF HPK1 INHIBITOR IN TREATMENT OF INTERFERON-RELATED DISEASES” (priority 2022, published 2025).

What was measured:
[1] = Determination of pharmacokinetic parameters in SD rats; format: in vivo; conditions: rat, plasma, oral; male SD rats; intravenously 2 mg/kg, gavage 10 mg/kg; read-out: Absolute oral bioavailability %
Method: The compounds to be tested were administered intravenously (2 mg/kg) and by gavage ([…]) to three male SD rats, respectively, and the blood concentration of the compounds to be tested in plasma was quantified by liquid chromatography tandem mass spectrometry ([…]), and the pharmacokinetic parameters were calculated to investigate the pharmacokinetic profiles of the compounds to be tested in the SD male rats. For the compounds to be tested, blood was taken at the time points of 0.25 h, 0.5 h, 1 h, 2 h, 4 h, 6 h, 8 h and 24 h after oral administration, and blood was taken at the time points of 0.083 h, 0.25 h, 0.5 h, 1 h, 2 h, 4 h, 6 h, 8 h and 24 h after intravenous administration. Subsequently, 50 μL of plasma sample was transferred to a 96-well plate and 250 μLACN (internal standard containing 260 ng/ml toluenesulfonylbutyramide) to precipitate proteins, and centrifuged at 4° C. and 4000 rpm for 20 min, 150 μL of the supernatant was transferred to a new 96-well plate and mixed with 150 μL of 0.1% FA/water, and then 5 μL of the resulting solution was loaded on LC-MS/MS for analysis.

PI3Kα = PI3Kα (Homo sapiens (Human), UniProt P42336); experiment: Kinase panel inhibition rate at 10 μM; format: biochemical
MNK1/2 = experiment: Kinase panel inhibition rate at 10 μM; format: biochemical
HER2 = HER2 (Homo sapiens (Human), UniProt P04626); experiment: Kinase panel inhibition rate at 10 μM; format: biochemical
CDK4 = CDK4 (Homo sapiens (Human), UniProt P11802); experiment: Kinase panel inhibition rate at 10 μM; format: biochemical
TNIK = TNIK (Homo sapiens (Human), UniProt Q9UKE5); experiment: Inhibition of TNIK kinase activity in vitro (ADP-Glo); format: biochemical
Method: (§1) The starting concentration for all tested compounds was 10 μM, and diluted in three-fold concentration gradient for a total of 10 concentration points in duplicate. […] A mixture of 2-fold concentration of MBP and ATP was prepare in the kinase buffer, and 2.5 μL of prepared mixture of 2-fold concentration of MBP and ATP was added into the above reaction system for the reaction, centrifuged at 1000 g for 30 s, and then incubated at room temperature for 1 h. 5 μL of ADP-Glo reagent was added into the reaction system, and incubated at room temperature for 40 min. 10 μL of kinase detection reagent was added and incubated at room temperature for 40 min.

EGFR = EGFR (Homo sapiens (Human), UniProt P00533); experiment: Kinase panel inhibition rate at 10 μM; format: biochemical
LCK = LCK (Homo sapiens (Human), UniProt P06239); experiment: Kinase panel inhibition rate at 10 μM; format: biochemical
LYNB = LYNB (Homo sapiens (Human), UniProt P07948); experiment: Kinase panel inhibition rate at 10 μM; format: biochemical
ERK1.2 = experiment: Kinase panel inhibition rate at 10 μM; format: biochemical
HPK1 = HPK1 (Homo sapiens (Human), UniProt Q92918); experiment: Inhibition of HPK1 kinase activity in vitro (ADP-Glo), compounds of Formula I-2; format: biochemical
Method: The starting concentration for all tested compounds was 10 μM, and diluted in three-fold concentration gradient for a total of 10 concentration points in duplicate. Before the experiment, 50 μM DTT and the enzymatic reaction system buffer were prepared. […] A mixture of 2-fold concentration of MBP and ATP was prepare in the kinase buffer, and 2.5 μL of prepared mixture of 2-fold concentration of MBP and ATP was added into the above reaction system for the reaction, centrifuged at 1000 g for 30 s, and then incubated at room temperature for 1 h. 5 μL of ADP-Glo reagent was added into the reaction system, and incubated at room temperature for 40 min. 10 μL of kinase detection reagent was added and incubated at room temperature for 40 min. […] In the above formula, empd refers to the tested compound, PC refers to the positive control, and VC refers to the negative control.

PDK1 = PDK1 (Homo sapiens (Human), UniProt O15530); experiment: Inhibition of PDK1 kinase activity in vitro (ADP-Glo); format: biochemical
Method: as §1

AKT1 = AKT1 (Homo sapiens (Human), UniProt P31749); experiment: Kinase panel inhibition rate at 10 μM; format: biochemical
ATR = ATR (Homo sapiens (Human), UniProt Q13535); experiment: Kinase panel inhibition rate at 10 μM; format: biochemical
CDK12 = CDK12 (Homo sapiens (Human), UniProt Q9NYV4); experiment: Kinase panel inhibition rate at 10 μM; format: biochemical
GCK = GCK (Homo sapiens (Human), UniProt Q12851); experiment: Inhibition of GCK kinase activity in vitro (ADP-Glo); format: biochemical
Method: as §1

IGFIR = IGFIR (Homo sapiens (Human), UniProt P08069); experiment: Kinase panel inhibition rate at 10 μM; format: biochemical
ROS1 = ROS1 (Homo sapiens (Human), UniProt P08922); experiment: Kinase panel inhibition rate at 10 μM; format: biochemical
CDK7 = CDK7 (Homo sapiens (Human), UniProt P50613); experiment: Kinase panel inhibition rate at 10 μM; format: biochemical
CSF1R = CSF1R (Homo sapiens (Human), UniProt P07333); experiment: Kinase panel inhibition rate at 10 μM; format: biochemical
ZAP70 = ZAP70 (Homo sapiens (Human), UniProt P43403); experiment: Kinase panel inhibition rate at 10 μM; format: biochemical
p38-alpha = p38-alpha (Homo sapiens (Human), UniProt Q16539); experiment: Kinase panel inhibition rate at 10 μM; format: biochemical
JAK1 = JAK1 (Homo sapiens (Human), UniProt P23458); experiment: Kinase panel inhibition rate at 10 μM; format: biochemical
SYK = SYK (Homo sapiens (Human), UniProt P43405); experiment: Kinase panel inhibition rate at 10 μM; format: biochemical
IKK-beta = IKK-beta (Homo sapiens (Human), UniProt O14920); experiment: Kinase panel inhibition rate at 10 μM; format: biochemical
CK1gamma1 = CK1gamma1 (Homo sapiens (Human), UniProt Q9HCP0); experiment: Kinase panel inhibition rate at 10 μM; format: biochemical
[2] = Acute toxicity assay of DD02001A_trans in mice by gavage; format: in vivo; conditions: single dose, observed 14 days
Method: Mice were given DD02001A_trans (2000, 1500, 1000, and 500 mg/kg) by gavage in a single dose, respectively, and the responses of the mice after administration and their deaths within two weeks were recorded. • 2.2.5.1 Animals: Kunming breed mice (purchased from Guangdong Provincial Laboratory Animal Centre, License No.: SCXK(GD) 2018-0002), 10 mice, half male and half female, weighing 18-22 g. The mice were kept for three days to adapt to the environment. […] Necropsy was carried out on the dead animals in time to record the lesions. If obvious changes are visible to naked eyes, pathological section should be made.

Sequence of IGFIR (P08069 31-1367): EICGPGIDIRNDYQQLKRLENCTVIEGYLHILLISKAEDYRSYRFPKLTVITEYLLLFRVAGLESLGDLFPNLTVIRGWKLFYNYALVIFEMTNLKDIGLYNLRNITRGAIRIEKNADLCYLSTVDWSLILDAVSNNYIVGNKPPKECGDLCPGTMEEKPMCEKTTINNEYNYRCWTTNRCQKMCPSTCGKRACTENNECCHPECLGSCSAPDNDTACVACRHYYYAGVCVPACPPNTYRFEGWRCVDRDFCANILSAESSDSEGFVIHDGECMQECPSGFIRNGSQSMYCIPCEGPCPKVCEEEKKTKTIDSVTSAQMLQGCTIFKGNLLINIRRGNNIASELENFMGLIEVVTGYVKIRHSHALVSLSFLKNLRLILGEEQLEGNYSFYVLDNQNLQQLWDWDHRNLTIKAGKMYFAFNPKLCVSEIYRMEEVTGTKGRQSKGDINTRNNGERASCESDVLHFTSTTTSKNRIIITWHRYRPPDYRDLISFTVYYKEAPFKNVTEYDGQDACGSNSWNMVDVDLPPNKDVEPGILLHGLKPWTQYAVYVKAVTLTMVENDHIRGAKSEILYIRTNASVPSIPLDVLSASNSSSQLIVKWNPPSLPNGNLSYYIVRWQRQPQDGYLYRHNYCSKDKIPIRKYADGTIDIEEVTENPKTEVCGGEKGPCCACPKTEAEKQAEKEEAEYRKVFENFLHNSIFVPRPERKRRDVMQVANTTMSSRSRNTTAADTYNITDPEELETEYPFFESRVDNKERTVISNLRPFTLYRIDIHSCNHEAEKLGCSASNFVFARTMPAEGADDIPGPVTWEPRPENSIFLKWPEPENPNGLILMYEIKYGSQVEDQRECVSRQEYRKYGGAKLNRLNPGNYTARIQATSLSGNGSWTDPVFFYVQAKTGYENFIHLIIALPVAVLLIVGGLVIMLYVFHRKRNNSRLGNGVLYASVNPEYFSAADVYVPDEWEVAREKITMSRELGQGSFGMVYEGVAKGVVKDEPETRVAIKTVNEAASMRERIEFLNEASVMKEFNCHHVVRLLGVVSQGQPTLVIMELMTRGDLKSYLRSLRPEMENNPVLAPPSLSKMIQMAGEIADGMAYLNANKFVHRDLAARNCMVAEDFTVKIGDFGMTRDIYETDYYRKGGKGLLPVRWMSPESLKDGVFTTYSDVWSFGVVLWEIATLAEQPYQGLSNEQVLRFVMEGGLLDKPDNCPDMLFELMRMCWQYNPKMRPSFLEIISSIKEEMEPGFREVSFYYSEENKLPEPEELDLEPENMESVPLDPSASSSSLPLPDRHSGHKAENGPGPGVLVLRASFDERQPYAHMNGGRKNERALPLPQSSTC
Sequence of IKK-beta (O14920 whole entry): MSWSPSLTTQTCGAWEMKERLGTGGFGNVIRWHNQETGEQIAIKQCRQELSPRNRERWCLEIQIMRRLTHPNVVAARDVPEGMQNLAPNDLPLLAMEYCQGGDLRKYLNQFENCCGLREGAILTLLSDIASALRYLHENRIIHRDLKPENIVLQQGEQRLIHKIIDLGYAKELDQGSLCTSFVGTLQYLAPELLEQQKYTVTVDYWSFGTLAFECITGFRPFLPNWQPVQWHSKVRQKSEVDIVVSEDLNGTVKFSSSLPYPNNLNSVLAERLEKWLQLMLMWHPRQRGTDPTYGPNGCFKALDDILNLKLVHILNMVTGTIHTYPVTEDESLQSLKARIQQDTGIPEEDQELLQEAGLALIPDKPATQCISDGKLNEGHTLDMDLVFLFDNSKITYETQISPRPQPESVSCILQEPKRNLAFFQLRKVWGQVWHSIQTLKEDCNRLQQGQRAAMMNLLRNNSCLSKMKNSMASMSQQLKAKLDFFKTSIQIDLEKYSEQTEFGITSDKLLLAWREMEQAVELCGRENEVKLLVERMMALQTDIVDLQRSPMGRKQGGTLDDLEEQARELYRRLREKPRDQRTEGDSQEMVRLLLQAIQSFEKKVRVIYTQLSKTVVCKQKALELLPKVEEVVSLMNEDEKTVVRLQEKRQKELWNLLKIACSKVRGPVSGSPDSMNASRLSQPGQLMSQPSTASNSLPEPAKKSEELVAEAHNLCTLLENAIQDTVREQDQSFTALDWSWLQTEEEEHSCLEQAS
Sequence of ZAP70 (P43403 whole entry): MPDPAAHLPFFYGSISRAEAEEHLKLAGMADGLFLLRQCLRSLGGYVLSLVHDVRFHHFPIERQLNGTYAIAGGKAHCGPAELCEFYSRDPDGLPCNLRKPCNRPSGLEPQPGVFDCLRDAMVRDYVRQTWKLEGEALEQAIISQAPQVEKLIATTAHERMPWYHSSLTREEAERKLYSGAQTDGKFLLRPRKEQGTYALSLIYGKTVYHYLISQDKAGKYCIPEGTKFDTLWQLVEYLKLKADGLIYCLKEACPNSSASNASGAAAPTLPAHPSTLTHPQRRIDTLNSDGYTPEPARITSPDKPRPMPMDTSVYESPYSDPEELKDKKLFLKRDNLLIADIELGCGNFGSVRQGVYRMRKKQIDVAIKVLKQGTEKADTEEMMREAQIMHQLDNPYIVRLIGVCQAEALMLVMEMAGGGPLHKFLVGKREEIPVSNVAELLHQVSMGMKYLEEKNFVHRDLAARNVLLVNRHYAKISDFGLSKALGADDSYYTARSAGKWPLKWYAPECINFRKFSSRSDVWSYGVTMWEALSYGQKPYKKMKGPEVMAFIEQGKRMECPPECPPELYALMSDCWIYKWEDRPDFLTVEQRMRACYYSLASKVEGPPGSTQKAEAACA
Sequence of ROS1 (P08922 28-2347): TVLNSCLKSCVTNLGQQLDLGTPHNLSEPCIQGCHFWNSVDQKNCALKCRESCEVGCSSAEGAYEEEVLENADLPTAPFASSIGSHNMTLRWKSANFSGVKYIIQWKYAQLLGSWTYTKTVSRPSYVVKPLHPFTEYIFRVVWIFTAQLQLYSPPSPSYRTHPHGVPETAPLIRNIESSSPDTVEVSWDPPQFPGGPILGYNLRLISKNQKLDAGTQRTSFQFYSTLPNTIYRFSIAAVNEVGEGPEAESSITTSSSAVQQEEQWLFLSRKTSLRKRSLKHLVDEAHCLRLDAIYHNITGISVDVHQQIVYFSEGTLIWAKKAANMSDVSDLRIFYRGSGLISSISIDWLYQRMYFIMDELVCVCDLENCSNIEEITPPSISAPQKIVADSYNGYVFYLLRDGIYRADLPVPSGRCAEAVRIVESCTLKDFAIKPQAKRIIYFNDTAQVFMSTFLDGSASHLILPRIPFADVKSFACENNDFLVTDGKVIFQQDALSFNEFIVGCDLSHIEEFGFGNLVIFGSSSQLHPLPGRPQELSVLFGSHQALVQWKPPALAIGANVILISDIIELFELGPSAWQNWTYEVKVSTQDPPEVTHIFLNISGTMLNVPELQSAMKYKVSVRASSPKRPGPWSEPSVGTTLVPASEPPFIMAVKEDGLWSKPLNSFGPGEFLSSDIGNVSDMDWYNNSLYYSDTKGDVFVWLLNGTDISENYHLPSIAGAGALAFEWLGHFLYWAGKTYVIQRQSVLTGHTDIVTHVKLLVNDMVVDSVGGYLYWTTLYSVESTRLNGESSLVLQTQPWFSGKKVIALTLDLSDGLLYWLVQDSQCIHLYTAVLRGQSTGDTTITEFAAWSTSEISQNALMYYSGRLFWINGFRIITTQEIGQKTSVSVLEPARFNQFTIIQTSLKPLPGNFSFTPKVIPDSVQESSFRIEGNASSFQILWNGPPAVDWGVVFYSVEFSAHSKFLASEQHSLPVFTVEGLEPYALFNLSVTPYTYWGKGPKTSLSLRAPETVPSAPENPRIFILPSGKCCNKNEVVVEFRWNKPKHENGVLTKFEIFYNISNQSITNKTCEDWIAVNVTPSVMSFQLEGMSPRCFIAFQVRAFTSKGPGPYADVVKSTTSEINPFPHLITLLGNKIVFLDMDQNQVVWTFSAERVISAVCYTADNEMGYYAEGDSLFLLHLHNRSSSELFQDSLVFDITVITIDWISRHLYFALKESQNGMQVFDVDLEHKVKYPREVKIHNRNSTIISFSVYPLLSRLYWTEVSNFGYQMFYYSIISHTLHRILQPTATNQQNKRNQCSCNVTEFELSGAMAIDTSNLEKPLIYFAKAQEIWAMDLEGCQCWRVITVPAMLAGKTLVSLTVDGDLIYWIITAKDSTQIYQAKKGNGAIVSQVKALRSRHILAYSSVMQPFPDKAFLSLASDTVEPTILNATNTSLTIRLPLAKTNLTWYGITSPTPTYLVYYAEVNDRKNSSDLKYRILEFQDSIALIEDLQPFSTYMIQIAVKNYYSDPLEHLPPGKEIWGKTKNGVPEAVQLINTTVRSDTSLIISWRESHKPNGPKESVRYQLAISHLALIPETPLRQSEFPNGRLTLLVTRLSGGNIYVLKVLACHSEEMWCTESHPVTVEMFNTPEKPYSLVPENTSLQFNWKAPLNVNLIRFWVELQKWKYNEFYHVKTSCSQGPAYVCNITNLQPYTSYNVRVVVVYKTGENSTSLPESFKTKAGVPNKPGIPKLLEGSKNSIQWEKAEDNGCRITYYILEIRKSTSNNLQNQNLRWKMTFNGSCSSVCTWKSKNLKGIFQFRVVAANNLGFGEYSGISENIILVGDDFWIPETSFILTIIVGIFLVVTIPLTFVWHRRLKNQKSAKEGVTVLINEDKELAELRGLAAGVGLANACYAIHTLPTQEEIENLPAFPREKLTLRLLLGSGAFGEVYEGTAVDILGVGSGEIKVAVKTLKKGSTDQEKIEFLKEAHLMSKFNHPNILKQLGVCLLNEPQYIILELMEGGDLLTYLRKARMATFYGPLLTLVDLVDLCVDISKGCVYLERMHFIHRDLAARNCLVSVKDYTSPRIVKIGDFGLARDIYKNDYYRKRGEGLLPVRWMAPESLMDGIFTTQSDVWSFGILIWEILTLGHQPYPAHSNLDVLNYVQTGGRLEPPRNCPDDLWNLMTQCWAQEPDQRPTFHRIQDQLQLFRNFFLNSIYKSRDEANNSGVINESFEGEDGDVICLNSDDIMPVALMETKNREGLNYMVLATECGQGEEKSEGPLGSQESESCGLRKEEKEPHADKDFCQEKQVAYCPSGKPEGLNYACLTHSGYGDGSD

Cn1cccc1-c1cc2cc(NC(=O)[C@@H]3C[C@H]3F)ncc2c(N)c1F [DD02001A trans, (1S,2R)—N-(8-amino-7-fluoro-6-(1-methyl-1H-pyrrole-2-yl)isoquinolin-3-yl)-2-fluorocyclopropane-1-carboxamide]
bioavailability [1]: 61.3%
inhibition at 10 µM (PI3Kα): 79.1%
inhibition rate MNK1/2 (MNK1/2): < 40%
inhibition at 10 µM (HER2): < 40%
inhibition at 10 µM (CDK4): < 40%
IC50 (TNIK): > 10 nM
inhibition at 10 µM (EGFR): < 40%
inhibition at 10 µM (LCK): 87.6%
inhibition at 10 µM (LYNB): 82.9%
inhibition rate ERK1.2 (ERK1.2): < 40%
IC50 (HPK1): < 10 nM
IC50 (PDK1): > 10000 nM
inhibition at 10 µM (AKT1): < 40%
inhibition at 10 µM (ATR): < 40%
inhibition at 10 µM (CDK12): < 40%
IC50 (GCK): > 10 nM
inhibition at 10 µM (IGFIR): < 40%
inhibition at 10 µM (ROS1): < 40%
inhibition at 10 µM (CDK7): < 40%
inhibition at 10 µM (CSF1R): 102%
inhibition at 10 µM (ZAP70): < 40%
inhibition at 10 µM (p38-alpha): < 40%
inhibition at 10 µM (JAK1): 97.3%
inhibition at 10 µM (SYK): 85.1%
inhibition at 10 µM (IKK-beta): < 40%
inhibition at 10 µM (CK1gamma1): < 40%
maximum tolerated dosage by gavage [2]: 1000 to 1500 mg/kg
